Patent publication US8080367B2, “Regulation of cell survival by HSP90 and IP6K2” (The Johns Hopkins University, priority 2006, dated 2011)
“Also recorded” adds a separate entry of the source.

How the values were obtained:
IP6K2 [1] = assay: IP7 measurement in vivo (IP6K activity as IP7/IP6 ratio in [3H]inositol labeled cells); conditions: HeLa cells with or without overexpression of IP6K2
IP6K2 [2] = assay: Intracellular localization of IP6K2 (nuclei isolation, fluorescence microscopy); assay type: cell-based; conditions: for effect on nuclear vs cytosolic myc-IP6K2, nuclei isolation and densitometry: 60 μg total protein per lane, anti-myc blot; for effect on intracellular localization of IP6K2: drug-treated cells
Procedure: FIG. 4A-4F. HSP90 regulates intracellular localization of IP6K2. FIG. 4A. […] Following drug treatment, nuclei were isolated from the rest of the cytoplasm. In each lane, 60 μg of total protein was loaded and the localization of IP6K2 assessed with an anti-myc antibody. Bands were analyzed by densitometry and changes in localization were calculated with the basal distribution of IP6K2 as a control. […] FIG. 4B. GFP-IP6K2 stably expressed in HEK 293 cells is distributed to a similar extent in cytosol and nucleus. Cells were stained with Hoechst stain for nucleus. FIG. 4C. Overexpression of pDSRed-HSP90 in HEK293 stably expressing GFP-IP6K2 retains IP6K2 completely in the cytosol. HSP90 also co-localizes well with IP6K2 as indicated by the yellow color of the merged picture. FIG. 4D. […] FIG. 4E. […] Cells overexpressing HSP90 (arrow a) display co-localization of IP6K2-HSP90 in the cytosol, whereas in cells lacking overexpressed HSP90 (arrow b), IP6K2 is nuclear. FIG. 4F. Effects of HSP90 depletion on intracellular localization of IP6K2. In HeLa, cells transiently expressed GFP-IP6K2 occurs diffusely throughout cells. Depletion of HSP90 by RNAi (depletion is 100% as shown in FIG. 6), leads to nuclear accumulation of IP6K2.
Isolation of nuclei: Nuclei were separated from other cytoplasmic components using commercial kits (See ‘Reagents’ section). Preparation was checked each time by running appropriate controls for nucleus (p84).
Fluorescence microscopy: HeLa cells were transfected with pEGFP+IP6K1/IP6K2/IP6K3, either alone or with pDsRed HSP90α with or without drug or siRNA treatment, fixed with ice cold methanol, stained with Hoechst stain for nucleus and observed under an Ultraview1 confocal microscope.

HeLa cells [3] = assay: Cell death (% apoptotic nuclei) in IP6K2 siRNA depleted cells; assay type: cell-based; conditions: IP6K2 RNA interference (~40% less IP7 formation)
Text: (§1) FIG. 5A. […] FIG. 5B. […] FIG. 5C. […] FIG. 5D. […] FIG. 5E.

HeLa cells [4] = assay: Cell death / survival (MTT assay) with IP6K2 overexpression; assay type: cell-based; conditions: HeLa cells transfected with IP6K2
Text: as §1

IP6K2-HSP90 binding [5] = molecular target: T1, IP6K2-HSP90 binding (Homo sapiens, UniProt Q9UHH9); assay: In vitro HSP90-IP6K2 binding assay with purified proteins; conditions: IP6K2 preincubated with increasing concentrations of IP6 15 min, then HSP90 1 h
T1 construct: purified endogenous HSP90 (HeLa); made in house; host or cells: HSP90 purified from HeLa cells (endogenous); myc-IP6K2 immunoprecipitated from transfected HEK 293 cells
T1 sequence (Q9UHH9 1-426): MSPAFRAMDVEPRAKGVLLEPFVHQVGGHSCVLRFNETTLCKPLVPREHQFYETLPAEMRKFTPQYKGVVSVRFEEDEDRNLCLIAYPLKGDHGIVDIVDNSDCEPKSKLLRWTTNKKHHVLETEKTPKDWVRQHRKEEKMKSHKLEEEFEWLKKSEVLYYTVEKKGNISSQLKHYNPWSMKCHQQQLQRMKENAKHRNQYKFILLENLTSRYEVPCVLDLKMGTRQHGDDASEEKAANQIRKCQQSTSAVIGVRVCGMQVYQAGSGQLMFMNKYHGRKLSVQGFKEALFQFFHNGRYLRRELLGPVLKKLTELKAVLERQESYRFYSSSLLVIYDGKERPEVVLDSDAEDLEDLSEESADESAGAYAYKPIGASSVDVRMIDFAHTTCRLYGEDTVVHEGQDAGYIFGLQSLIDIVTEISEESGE
Text: (§2) FIG. 3A, 3B, 3C. […] FIG. 3E.

IP6K2-HSP90 binding [6] = molecular target: IP6K2-HSP90 binding (Homo sapiens, UniProt P07900); assay: Co-immunoprecipitation of HSP90 with IP6K2 from drug-treated cells; assay type: cell-based; conditions: for effect on IP6K2-HSP90 binding, coimmunoprecipitation: HEK 293 cells; for effect on binding of HSP90 with IP6K2, coimmunoprecipitation: myc-IP6K2-transfected HeLa cells, CP 30 overnight, NB 500 μM overnight, ST 1 μM 6 h, AAG 1 μM overnight
Procedure: as §2
Cell culture: HeLa and HEK 293 were cultured as described (18). […] HEK293 and HeLa cells were transiently transfected using polyfect transfection reagent (Qiagen). siRNAs were transfected with ‘Hiperfect’ transfection reagent (Qiagen).
Co-immunoprecipitation: Cells/mouse brain were homogenised in lysis buffer (20 mM Tris pH 7.4, 150 mM NaCl, 0.5% NP-40, and protease inhibitor cocktails). Equal amounts of protein were immunoprecipitated at 4° C. overnight using the protein A/G agarose beads in the presence of antibody. After immunoprecipitation, beads were washed four times with lysis buffer. Co-immunoprecipitates were resolved by SDS-PAGE and analysed by western blotting.

IP6K2-HSP90 binding [7] = molecular target: T2, IP6K2-HSP90 binding; assay: In vitro HSP90-IP6K2 binding assay with purified proteins; parameters: species or system human; conditions: purified proteins; 250 nM HSP90 from HeLa preincubated with drug 30 min 37° C., then myc-IP6K2 beads; western blot; read-out: concentration reducing IP6K2-HSP90 binding by 50%
T2 construct: other: purified proteins; 250 nM HSP90 from HeLa preincubated with d
Text: as §2

HeLa cells [8] = conditions: reference 10; cited from earlier work
HSP90 = HSP90 (Homo sapiens, UniProt P07900); assay: HSP90 binding to ATP-agarose beads; conditions: increasing concentrations, FIG. 7
Text: Beads were washed with wash buffer and run on 4-12% SDS-PAGE. Bound HSP90 was detected by western blotting with anti-HSP90 monoclonal antibody.

IP6K2-HSP90 binding [9] = assay: In vitro HSP90-IP6K2 binding assay with purified proteins; parameters: species or system human; conditions: data not shown
Text: as §2

Row | Compound | effect on IP6K2 activity / IP7 formation in cells (IP6K2 [1]) | effect on nuclear vs cytosolic myc-IP6K2, nuclei isolation and densitometry (IP6K2 [2]) | effect on intracellular localization of IP6K2 (IP6K2 [2]) | change of drug-elicited cell death in IP6K2 depleted cells (HeLa cells [3]) | change of drug's apoptotic action on IP6K2 overexpression (HeLa cells [4]) | effect on IP6K2-HSP90 binding, coimmunoprecipitation (IP6K2-HSP90 binding [6]) | effect on binding of HSP90 with IP6K2, coimmunoprecipitation (IP6K2-HSP90 binding [6]) | IC50 (IP6K2-HSP90 binding [7]) [µM] | further results
1 | C=CCNC1=C2C[C@@H](C)C[C@H](OC)[C@H](O)[C@@H](C)/C=C(\C)[C@H](OC(N)=O)[C@@H](OC)/C=C\C=C(/C)C(=O)NC(=CC1=O)C2=O [AAG, 17-aminoallyl geldanamycin] | diminishes IP6K activity; also recorded: less IP7 formation | elicits the opposite effect | increases IP6K2 localization in the cytosol | unaffected by IP6K2 depletion | unaffected by IP6K2 overexpression | – | – | – | –
2 | O=P(O)(O)O[C@H]1[C@H](OP(=O)(O)O)[C@@H](OP(=O)(O)O)[C@H](OP(=O)(O)O)[C@@H](OP(=O)(O)O)[C@H]1OP(=O)(O)O [IP6] | – | – | – | – | – | – | – | – | effect of IP6 on in vitro binding of HSP90 to myc IP6K2 (IP6K2-HSP90 binding [5]): abolished
3 | N.N.[Cl][Pt][Cl] [cisplatin] | augmented IP6K2 activity | – | enhance nuclear levels of IP6K2 | reduced by almost half | markedly enhanced by IP6K2 overexpression | diminish IP6K2-HSP90 binding | disrupt the binding of HSP90 with IP6K2 | 1 to 5 | effect on IP6K2 activity / IP7 formation in cells (IP6K2 [1]; listed as CP): increase IP6K activity
4 | CO[C@@H]1[C@@H](OC(N)=O)[C@@H](O)[C@H](Oc2ccc3c(O)c(NC(=O)c4ccc(O)c(CC=C(C)C)c4)c(=O)oc3c2C)OC1(C)C [novobiocin] | augmented IP6K2 activity | increases nuclear and decreases cytosolic IP6K2 | enhance nuclear levels of IP6K2 | reduced by almost half | markedly enhanced by IP6K2 overexpression | – | – | ~200 | effect on IP6K2 activity / IP7 formation in cells (IP6K2 [1]; listed as NB): increase IP6K activity
5 | CN[C@@H]1C[C@H]2O[C@@](C)([C@@H]1OC)n1c3ccccc3c3c4c(c5c6ccccc6n2c5c31)C(=O)NC4 [staurosporine] | augmented IP6K2 activity | – | elicits mitochondrial translocation of IP6K2 | – | markedly enhanced by IP6K2 overexpression | diminish IP6K2-HSP90 binding | disrupt the binding of HSP90 with IP6K2 | – | effect on IP6K2 activity / IP7 formation in cells (IP6K2 [1]; listed as ST): increase IP6K activity; change of drug's apoptotic effects on IP6K2 depletion, previously reported (HeLa cells [8]): IP6K2 depletion prevents the apoptotic effects; effect on HSP90 binding to ATP-agarose beads (HSP90): inhibits binding of HSP90 to ATP-agarose beads in a concentration dependent manner
6 | p23: a co-chaperone which binds HSP90 with high affinity | – | – | – | – | – | – | – | – | effect of p23 on IP6K2-HSP90 coprecipitation (IP6K2-HSP90 binding [6]; HeLa cells, data not shown): does not affect their coprecipitation in HeLa cells; effect of p23 on in vitro IP6K2-HSP90 binding (IP6K2-HSP90 binding [9]): only influences in vitro IP6K2-HSP90 binding at a high molar ratio (1:20)
